Consider one compound from patent US20220184091A1, “Methods of Treating Cancer with Chk1 Inhibitors” (Sierra Oncology, Inc., priority 2019, published 2022).

The test system of one test is RPP. The test is described as follows: Survival of cancer cells after gemcitabine, RPP. In kind it is cell-based, murine. To be noted: RPP SCLC in vitro model. On the procedure: Data presented as mean±SD and p values by t-test ***p<0.001.
(§1) SCLC cell lines were incubated with dimethyl sulfoxide (vehicle control), SRA737 or Gemcitabine for 96 hours at nine distinct concentrations, with the maximum dose being 10 μM. A CellTiter-Glo luminescent cell viability assay (Promega) was performed after 96 hours of treatment as per the manufacturer's specifications. IC50 values were estimated using Drexplorer, as previously described (Tong P, Coombes K R, Johnson F M, Byers L A, Diao L, Liu D D, Lee J J, Heymach J V, Wang J. drexplorer: A tool to explore dose-response relationships and drug-drug interactions. Bioinformatics. 2015 May 15; 31(10):1692-4.)

The next test concerns H209. As to the kind of experiment: Survival of cancer cells after gemcitabine, H209. Format: cell-based. The conditions noted are these: H209 SCLC in vitro model. On the procedure: as §1
Another test concerns H524. The test is described as follows: Survival of cancer cells after gemcitabine, H524. In kind it is cell-based. The conditions noted are these: H524 SCLC in vitro model. On the procedure: as §1
The next test has as its system RPP tumor. The test is described as follows: Flank RPP (SCLC) tumor growth in B6129F1 immunocompetent mice. Format: in vivo, mouse. The conditions noted are these: anti-PD-L1 300 μg 1-day-on/6-days-off; LDG 40 mg/kg 1-day-on/6-days-off; SRA737 100 mg/kg 2-day-on/5-days-off. The protocol:
Tumors were evaluated twice weekly for the duration of the study. Tumor volumes were measured on all mice three times per week and calculated (width^2×length×0.4) using manual calipers. Once the average tumor size was in the range of 120-150 mm^3, mice were randomized into dosing groups using stratified sampling by assigning three animals per group for short-term reverse-phase protein array analysis and long-term treatment. Dosing schedules and duration varied depending on the study. Mice were weighed three times per week for the duration of the study, and a decrease in body weight >15% was considered indicative of a toxic dose. The Student t-test was used to determine statistical significance between compound- and vehicle-treated groups.
[…] 15A.

A further test has as its system IFNβ, CXCL10 and CCL5. The test is described as follows: qPCR of IFNβ, CXCL10 and CCL5 in resected RPP tumors. Format: in vivo, mouse. The conditions noted are these: RPP tumors resected at Day 21; SRA737 2-days-on/5-days-off. On the procedure: Data presented as mean±SD and p values by t-test * p<0.05, **p<0.01, ***p<0.001.
Real-time PCR was done using SYBR Select Master Mix (Life Technologies, cat #4472908) according to the manufacturer's protocol. Primers were purchased from Sigma Aldrich, Inc. Triplicate PCR reactions were run on ABI (7500 Fast Real Time PCR System). The comparative Ct method using the average 2ΔΔCT value for each set of triplicates was used, and the average of the biological replicates was calculated. Negative controls were included for every primer set, and GAPDH was used as the […].
On the technique in general: Real-time PCR tracks product formation cycle by cycle.

Turning to `Nc1ccn([C@@H]2O[C@H](CO)[C@@H](O)C2(F)F)c(=O)n1` [gemcitabine], the “response of cancer cells to gemcitabine alone” value in the test with RPP, in the test with H209 and in the test with H524 was “resistant” throughout. Besides, the “anti-tumor effect (tumor volume)” value in the test with RPP tumor is on record as “no significant anti-tumor effect”. Also, the “expression of IFNβ, CCL5 and CXCL10” value in the test with IFNβ, CXCL10 and CCL5 is “Neither LDG nor SRA737 monotherapy (2-days-on/5-days-off) showed any significant effect”.
